Laboratory results from patent US9446145B2, “Curcumin-antibody conjugates as anti-cancer agents” (priority 2009, dated 2016).

Legend:
B16F10 melanoma cells = experiment: B16F10 melanoma cell death IC50 (live cell counts 24 h after treatment); assay type: cell-based; conditions: Mus musculus, B16-F10, 24 h, free/solubilized curcumin, read-out: IC50 (concentration required for 50% B16F10 melanoma cell death)
Experimental: (§1) B16F10 melanoma cells were plated in a 96-well tissue culture plate with 2,000 cells in 50 μl of medium (DMEM+10% fetal bovine serum+1% penicillin-streptomycin) per well. After 24 hours, the targeted curcumin derivative (linked to 633 dye) was administered in a range of concentrations-10 nM, 20 nM, 30 nM, 50 nM, 100 nM. The product was diluted in neurobasal medium (+1% penicillin-streptomycin, 1% 1-glutamine, 2% B27 supplement), with 50 μl per well, and 2 wells per concentration. Control wells were treated with corresponding concentrations of free MUC18 antibody coupled to 633 dye. The plate was imaged after 24 hours using visible light and fluorescent microscopes. Using cell counts from four frames per well, the mean live cell number and mean standard deviation for each concentration (and its corresponding control) were found. The data was compiled and graphed on Kaleida Graph. […] See below. Each corresponding control well received the same amount of curcumin-free Mel-CAM-Dylight800.
Determined using same methods as step 1a. Dilution of 100 nM, 200 nM, 300 nM, 400 nM, 500 nM, 1 μM, 10 μM, 20 μM, 30 μM, 40 μM, and 50 μM were made using a 40 mM stock solution of curcumin in DMSO. Curcumin IC50 was compared to curc-MUC18 IC50 using Kaleida Graph.

GL261 glioblastoma cells = experiment: GL261 glioblastoma cell killing IC50 (same approach as for B16F10); assay type: cell-based; conditions: Mus musculus, solubilized non-targeted curcumin
Experimental: as §1
The same approach used for the B16F10 melanoma cells (see above) was next used for the glioblastoma GL261 cells by attaching curcumin to an antibody against the […] antigen, which is expressed on the surface of grade III/IV glioblastoma (Strik, H. M., et al., Galectin-3: Cellular Distribution and Correlation with WHO-grade in Human Gliomas. Journal of Neuro-Oncology, 53(1): p. 13-20 (2001)). […]

Work on `COc1cc(C=CC(=O)CC(=O)C=Cc2ccc(O)c(OC)c2)ccc1O` [curcumin, 1,7-bis(4-hydroxy-3-methoxyphenyl)-1,6-heptadiene-3,5-dione] yielded an IC50 (B16F10 melanoma cells) of 15 µM and an IC50 (GL261 glioblastoma cells) of 10 µM.
